Reference: patent publication US8968807B1, “Use of ethylene diamine metal complexes to deliver highly absorbable metals for animal nutrition” (Zinpro Corporation, priority 2013, dated 2015)

Legend:
[1] = Sheep bolus test, manganese blood uptake; format: in vivo; conditions: 30 hour
Description: Tests like in Example 19 and 21 were run with MnSO4 in comparison with Mn-EDA of Example 10. At all points Manganese blood uptake of the sheep was at lower levels than other tested ligands. This may be a characteristic of Mn itself.

[2] = sheep, bolus; versus FeSO4; most notably at 30 hours; FIG. 3
Protocol: In the following examples sheep were given a bolus injection like in Example 19 and then blood uptake was measured at various intervals.
The Fe-EDA (Example 9) and the Fe-EDA (Example 16) were tested for iron uptake in the blood in comparison with the bolus injection of FeSO4.

Cobb male broilers = assay: Poultry trial with Cobb male broilers; format: in vivo; conditions: Cobb male broilers from 1 day old; 80 ppm supplemental Zn; Zn-EDA group = 40 ppm Zn from ZnSO4 + 40 ppm Zn from Zn-EDA
Description: Animals were Cobb male broilers. The experiment was started with 1 day old animals. ZnSO4 was used as a comparative example using 80 ppm zinc from ZnSO4. Zn-EDA replaced 40 ppm of the zinc so there was 40 ppm Zn from ZnSO4 and 40 ppm Zn from Zn-EDA and compared to 80 ppm Zn from ZnSO4. Actual broiler integrator diets were used. They contain 500 ftu of phytase and an NSP enzyme (nonstarch polysaccride degrading enzyme). The plane of nutrition is targeted to be at AgriStat's 75th percentile. […] There were 12 replicates per treatment and 21 birds per replicate.

| Molecule | Manganese blood uptake [1] | iron uptake in the blood [2] | other results |
| --- | --- | --- | --- |
| O=S(=O)([O-])[O-].[Mn+2] [MnSO4] | 24 | – | – |
| 1,2 Diaminoethane dihydrochloride—manganese(II) chloride [Example 10] | 33 | – | – |
| Cl.Cl.NCCN.[Cl][Fe][Cl] [Example 9, 1,2 Diaminoethane dihydrochloride—iron(II) chloride] | – | better at every interval than inorganic iron sulfate | – |
| O=S(=O)([O-])[O-].[Zn+2] [ZnSulfate, ZnSO4] | – | – | Body Wt. (Cobb male broilers): 2.212 kg; Feed Conversion (Cobb male broilers): 1.531; Mortality (Cobb male broilers): 4.71% |
| NCCN.[Cl][Fe][Cl] [Example 16, 1,2 Diaminoethane—iron(II) chloride] | – | better at every interval than inorganic iron sulfate | – |
